The supplement of paper PMC10307832

Legend:
Experiment in all cases: relative viability (nuclei count vs DMSO), 5 days (fraction); higher = more cells survive
201T = system: 201T
Summary of the method: (§1)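 Nuclei were stained with Hoechst during a one-step fixation (final 0.05% Triton X-100, 1% formaldehyde, 1 ug/ml Hoechst) carried out 5 days after dosing, then counted on 4× images. The cells, lung cancer lines in 1536-well plates, had been dosed by pin tool the day after seeding with one drug alone or a fixed anchor-drug dose plus five library-drug doses (not always all listed) in √10 steps. Relative viability is the nuclei count in treated wells divided by that in vehicle wells, and each value is the median of duplicate plates.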

CAL-12T = system: CAL-12T
Summary of the method: as §1

COR-L23 = system: COR-L23
Summary of the method: as §1

ChaGo-K-1 = system: ChaGo-K-1
Summary of the method: as §1

HOP-62 = system: HOP-62
Summary of the method: as §1

LC-2-ad = system: LC-2-ad
Summary of the method: as §1

NCI-H1355 = system: NCI-H1355
Summary of the method: as §1

NCI-H1395 = system: NCI-H1395
Summary of the method: as §1

NCI-H1651 = system: NCI-H1651
Summary of the method: as §1

NCI-H1666 = system: NCI-H1666
Summary of the method: as §1

NCI-H1734 = system: NCI-H1734
Summary of the method: as §1

NCI-H1944 = system: NCI-H1944
Summary of the method: as §1

NCI-H1993 = system: NCI-H1993
Summary of the method: as §1

NCI-H2085 = system: NCI-H2085
Summary of the method: as §1

NCI-H2170 = system: NCI-H2170
Summary of the method: as §1

NCI-H2228 = system: NCI-H2228
Summary of the method: as §1

NCI-H2342 = system: NCI-H2342
Summary of the method: as §1

NCI-H322M = system: NCI-H322M
Summary of the method: as §1

NCI-H520 = system: NCI-H520
Summary of the method: as §1

NCI-H661 = system: NCI-H661
Summary of the method: as §1

NCI-H838 = system: NCI-H838
Summary of the method: as §1

RERF-LC-KJ = system: RERF-LC-KJ
Summary of the method: as §1

COCC1(CO)C(=O)C2CCN1CC2 (stereo not given) [PRIMA-1MET] + CC(=O)Nc1cccc(-n2c(=O)n(C3CC3)c(=O)c3c(Nc4ccc(I)cc4F)n(C)c(=O)c(C)c32)c1 [Trametinib] (partner 0.02 µM)
relative viability (201T; first compound 0.2 µM): 0.757
relative viability (201T; first compound 0.6325 µM): 0.74
relative viability (201T; first compound 2 µM): 0.684
relative viability (201T; first compound 6.325 µM): 0.749
relative viability (201T; first compound 20 µM): 0.721
relative viability (CAL-12T; first compound 0.2 µM): 0.274
relative viability (CAL-12T; first compound 0.6325 µM): 0.319
relative viability (CAL-12T; first compound 2 µM): 0.313
relative viability (CAL-12T; first compound 6.325 µM): 0.235
relative viability (CAL-12T; first compound 20 µM): 0.15
relative viability (COR-L23; first compound 0.2 µM): 0.247
relative viability (COR-L23; first compound 0.6325 µM): 0.532
relative viability (COR-L23; first compound 2 µM): 0.495
relative viability (COR-L23; first compound 6.325 µM): 0.357
relative viability (COR-L23; first compound 20 µM): 0.0237
relative viability (ChaGo-K-1; first compound 0.2 µM): 0.996
relative viability (ChaGo-K-1; first compound 0.6325 µM): 0.735
relative viability (ChaGo-K-1; first compound 2 µM): 0.849
relative viability (ChaGo-K-1; first compound 6.325 µM): 0.891
relative viability (ChaGo-K-1; first compound 20 µM): 0.857
relative viability (HOP-62; first compound 0.2 µM): 0.217
relative viability (HOP-62; first compound 0.6325 µM): 0.34
relative viability (HOP-62; first compound 2 µM): 0.334
relative viability (HOP-62; first compound 6.325 µM): 0.344
relative viability (HOP-62; first compound 20 µM): 0.364
relative viability (LC-2-ad; first compound 0.2 µM): 0.82
relative viability (LC-2-ad; first compound 0.6325 µM): 0.914
relative viability (LC-2-ad; first compound 2 µM): 0.924
relative viability (LC-2-ad; first compound 6.325 µM): 0.878
relative viability (LC-2-ad; first compound 20 µM): 0.905
relative viability (NCI-H1355; first compound 0.2 µM): 0.393
relative viability (NCI-H1355; first compound 0.6325 µM): 0.462
relative viability (NCI-H1355; first compound 2 µM): 0.444
relative viability (NCI-H1355; first compound 6.325 µM): 0.427
relative viability (NCI-H1355; first compound 20 µM): 0.428
relative viability (NCI-H1395; first compound 0.2 µM): 1.14
relative viability (NCI-H1395; first compound 2 µM): 0.979
relative viability (NCI-H1395; first compound 6.325 µM): 1.02
relative viability (NCI-H1395; first compound 20 µM): 1.05
relative viability (NCI-H1651; first compound 0.2 µM): 0.826
relative viability (NCI-H1651; first compound 0.6325 µM): 0.562
relative viability (NCI-H1651; first compound 2 µM): 0.842
relative viability (NCI-H1651; first compound 6.325 µM): 0.849
relative viability (NCI-H1651; first compound 20 µM): 0.848
relative viability (NCI-H1666; first compound 0.2 µM): 0.886
relative viability (NCI-H1666; first compound 0.6325 µM): 0.815
relative viability (NCI-H1666; first compound 2 µM): 0.965
relative viability (NCI-H1666; first compound 6.325 µM): 0.759
relative viability (NCI-H1666; first compound 20 µM): 0.877
relative viability (NCI-H1734; first compound 0.2 µM): 0.564
relative viability (NCI-H1734; first compound 0.6325 µM): 0.622
relative viability (NCI-H1734; first compound 2 µM): 0.584
relative viability (NCI-H1734; first compound 6.325 µM): 0.581
relative viability (NCI-H1734; first compound 20 µM): 0.0425
relative viability (NCI-H1944; first compound 0.2 µM): 0.366
relative viability (NCI-H1944; first compound 0.6325 µM): 0.349
relative viability (NCI-H1944; first compound 2 µM): 0.407
relative viability (NCI-H1944; first compound 6.325 µM): 0.387
relative viability (NCI-H1944; first compound 20 µM): 0.425
relative viability (NCI-H1993; first compound 0.2 µM): 0.619
relative viability (NCI-H1993; first compound 2 µM): 0.588
relative viability (NCI-H1993; first compound 6.325 µM): 0.534
relative viability (NCI-H1993; first compound 20 µM): 0.514
relative viability (NCI-H2085; first compound 0.2 µM): 0.618
relative viability (NCI-H2085; first compound 0.6325 µM): 0.61
relative viability (NCI-H2085; first compound 2 µM): 0.508
relative viability (NCI-H2085; first compound 6.325 µM): 0.427
relative viability (NCI-H2085; first compound 20 µM): 0.141
relative viability (NCI-H2170; first compound 0.2 µM): 0.914
relative viability (NCI-H2170; first compound 0.6325 µM): 0.911
relative viability (NCI-H2170; first compound 2 µM): 0.887
relative viability (NCI-H2170; first compound 6.325 µM): 0.975
relative viability (NCI-H2170; first compound 20 µM): 0.964
relative viability (NCI-H2228; first compound 0.2 µM): 0.197
relative viability (NCI-H2228; first compound 0.6325 µM): 0.371
relative viability (NCI-H2228; first compound 2 µM): 0.822
relative viability (NCI-H2228; first compound 6.325 µM): 0.335
relative viability (NCI-H2228; first compound 20 µM): 0.0574
relative viability (NCI-H2342; first compound 0.2 µM): 0.77
relative viability (NCI-H2342; first compound 0.6325 µM): 1.06
relative viability (NCI-H2342; first compound 6.325 µM): 0.755
relative viability (NCI-H2342; first compound 20 µM): 0.67
relative viability (NCI-H322M; first compound 0.2 µM): 0.484
relative viability (NCI-H322M; first compound 0.6325 µM): 0.467
relative viability (NCI-H322M; first compound 6.325 µM): 0.468
relative viability (NCI-H322M; first compound 20 µM): 0.45
relative viability (NCI-H520; first compound 0.2 µM): 0.463
relative viability (NCI-H520; first compound 2 µM): 0.455
relative viability (NCI-H520; first compound 6.325 µM): 0.76
relative viability (NCI-H520; first compound 20 µM): 0.0736
relative viability (NCI-H661; first compound 0.2 µM): 0.506
relative viability (NCI-H661; first compound 0.6325 µM): 0.492
relative viability (NCI-H661; first compound 2 µM): 0.547
relative viability (NCI-H661; first compound 6.325 µM): 0.552
relative viability (NCI-H661; first compound 20 µM): 0.503
relative viability (NCI-H838; first compound 0.2 µM): 0.55
relative viability (NCI-H838; first compound 0.6325 µM): 0.523
relative viability (NCI-H838; first compound 2 µM): 0.416
relative viability (NCI-H838; first compound 6.325 µM): 0.553
relative viability (NCI-H838; first compound 20 µM): 0.557
relative viability (RERF-LC-KJ; first compound 0.2 µM): 0.858
relative viability (RERF-LC-KJ; first compound 0.6325 µM): 0.849
relative viability (RERF-LC-KJ; first compound 2 µM): 0.821
relative viability (RERF-LC-KJ; first compound 6.325 µM): 0.951
relative viability (RERF-LC-KJ; first compound 20 µM): 0.826
